Reference: paper PMC9870012 (Journal of Enzyme Inhibition and Medicinal Chemistry, 2023)

Key:
[1] = molecular target: ADAM17 (Homo sapiens, UniProt P78536); experiment: Off-target metalloprotease inhibition, ADAM17; type: biochemical; conditions: read-out: Residual activity ADAM17
[2] = Cell viability assay; type: cell-based; conditions: human, Hep-G2 cells
[3] = molecular target: T1, ADAM10 (Homo sapiens, UniProt O14672); experiment: Off-target metalloprotease inhibition, ADAM10; type: biochemical; conditions: read-out: Residual activity ADAM10
T1 sequence (O14672 214-748): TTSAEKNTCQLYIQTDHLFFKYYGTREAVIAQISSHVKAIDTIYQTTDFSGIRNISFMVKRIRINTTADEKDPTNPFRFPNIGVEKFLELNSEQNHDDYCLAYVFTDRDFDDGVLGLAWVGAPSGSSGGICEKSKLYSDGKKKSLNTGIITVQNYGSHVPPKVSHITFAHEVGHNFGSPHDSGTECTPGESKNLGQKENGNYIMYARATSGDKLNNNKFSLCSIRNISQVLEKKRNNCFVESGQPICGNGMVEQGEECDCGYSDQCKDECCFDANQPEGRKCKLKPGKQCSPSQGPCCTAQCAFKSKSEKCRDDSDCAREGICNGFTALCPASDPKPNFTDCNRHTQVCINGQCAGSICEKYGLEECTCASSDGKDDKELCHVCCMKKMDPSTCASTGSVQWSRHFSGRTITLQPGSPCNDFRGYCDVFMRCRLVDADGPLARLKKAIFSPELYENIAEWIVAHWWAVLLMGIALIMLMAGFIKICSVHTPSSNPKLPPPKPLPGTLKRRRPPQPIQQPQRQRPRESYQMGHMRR

[4] = molecular target: MMP13 (Homo sapiens, UniProt P45452); experiment: Off-target metalloprotease inhibition, MMP13; type: biochemical; conditions: read-out: Residual activity MMP13
[5] = molecular target: MMP9 (Homo sapiens, UniProt P14780); experiment: Off-target metalloprotease inhibition, MMP9; type: biochemical; conditions: read-out: Residual activity MMP9
[6] = Cell viability assay; type: cell-based; conditions: human, SH-SY5Y cells
[7] = molecular target: T2, MMP2 (Homo sapiens, UniProt P08253); experiment: Off-target metalloprotease inhibition, MMP2; type: biochemical; conditions: read-out: Residual activity MMP2
T2 sequence (P08253 110-660): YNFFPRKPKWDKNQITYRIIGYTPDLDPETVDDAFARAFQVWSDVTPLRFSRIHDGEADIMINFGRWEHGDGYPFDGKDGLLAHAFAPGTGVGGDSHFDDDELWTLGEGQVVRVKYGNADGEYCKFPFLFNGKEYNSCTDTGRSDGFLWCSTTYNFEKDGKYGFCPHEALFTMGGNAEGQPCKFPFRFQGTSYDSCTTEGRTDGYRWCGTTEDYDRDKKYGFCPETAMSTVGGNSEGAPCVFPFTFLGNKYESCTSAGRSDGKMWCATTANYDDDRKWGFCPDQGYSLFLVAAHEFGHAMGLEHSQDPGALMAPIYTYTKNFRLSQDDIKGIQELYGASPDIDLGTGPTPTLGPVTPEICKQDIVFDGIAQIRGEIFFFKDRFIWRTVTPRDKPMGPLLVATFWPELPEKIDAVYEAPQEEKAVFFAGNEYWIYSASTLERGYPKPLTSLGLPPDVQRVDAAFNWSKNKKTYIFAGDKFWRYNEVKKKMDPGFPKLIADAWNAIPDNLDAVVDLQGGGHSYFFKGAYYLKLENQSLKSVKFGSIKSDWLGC

[8] = molecular target: T3, human meprin α (Homo sapiens, UniProt Q16819); type: biochemical; conditions: for SF: selectivity factor (Ki(app) meprin β/Ki(app) meprin α): meprin α over meprin β; for Ki: Ki(app) Meprin α, geometric mean of three independent experiments with standard deviation factor
T3 sequence (Q16819 66-746): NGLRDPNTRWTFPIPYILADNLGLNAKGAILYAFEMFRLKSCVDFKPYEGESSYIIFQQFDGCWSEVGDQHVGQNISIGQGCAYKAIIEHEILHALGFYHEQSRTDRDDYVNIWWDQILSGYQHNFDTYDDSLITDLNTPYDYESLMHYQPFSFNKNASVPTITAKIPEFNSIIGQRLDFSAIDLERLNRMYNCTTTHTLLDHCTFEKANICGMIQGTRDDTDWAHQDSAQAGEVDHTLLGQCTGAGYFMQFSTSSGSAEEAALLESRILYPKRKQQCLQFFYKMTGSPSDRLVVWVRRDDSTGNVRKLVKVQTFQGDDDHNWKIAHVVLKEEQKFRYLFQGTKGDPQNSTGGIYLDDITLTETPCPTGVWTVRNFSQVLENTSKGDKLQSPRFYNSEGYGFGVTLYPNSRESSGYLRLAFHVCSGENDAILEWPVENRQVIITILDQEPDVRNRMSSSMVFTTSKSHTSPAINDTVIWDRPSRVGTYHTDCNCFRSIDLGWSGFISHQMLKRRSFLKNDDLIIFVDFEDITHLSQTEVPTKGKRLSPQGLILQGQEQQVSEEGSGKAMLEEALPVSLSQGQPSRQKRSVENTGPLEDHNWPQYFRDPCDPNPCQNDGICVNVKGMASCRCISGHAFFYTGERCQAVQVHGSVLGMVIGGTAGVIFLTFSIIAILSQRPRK

[9] = molecular target: T4, human meprin β (Homo sapiens, UniProt Q16820); type: biochemical; conditions: for Ki: Ki(app) Meprin β, geometric mean of three independent experiments with standard deviation factor
T4 sequence (Q16820 62-701): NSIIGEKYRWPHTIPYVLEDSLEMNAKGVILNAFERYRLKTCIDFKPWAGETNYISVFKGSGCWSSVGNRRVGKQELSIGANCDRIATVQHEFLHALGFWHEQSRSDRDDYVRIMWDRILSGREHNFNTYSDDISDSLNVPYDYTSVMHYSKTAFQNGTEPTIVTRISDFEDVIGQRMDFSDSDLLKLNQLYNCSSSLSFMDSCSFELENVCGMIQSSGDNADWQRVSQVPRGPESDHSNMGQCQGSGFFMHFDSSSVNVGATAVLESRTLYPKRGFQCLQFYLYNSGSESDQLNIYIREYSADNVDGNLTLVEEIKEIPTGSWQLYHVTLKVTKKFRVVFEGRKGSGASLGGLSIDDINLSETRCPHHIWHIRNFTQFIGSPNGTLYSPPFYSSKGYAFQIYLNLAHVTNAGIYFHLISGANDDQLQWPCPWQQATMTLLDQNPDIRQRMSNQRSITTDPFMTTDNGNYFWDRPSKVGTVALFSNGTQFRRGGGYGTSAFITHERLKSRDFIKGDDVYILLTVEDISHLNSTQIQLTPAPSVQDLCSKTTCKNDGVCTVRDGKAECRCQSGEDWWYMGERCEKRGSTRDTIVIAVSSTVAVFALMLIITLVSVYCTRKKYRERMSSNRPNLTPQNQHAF

[10] = system: MMPs and ADAMs; experiment: Off-target metalloprotease panel; type: biochemical, human; conditions: 10 µM inhibitor concentration

Chain of MMP9 (P14780 107-707 limits assumed): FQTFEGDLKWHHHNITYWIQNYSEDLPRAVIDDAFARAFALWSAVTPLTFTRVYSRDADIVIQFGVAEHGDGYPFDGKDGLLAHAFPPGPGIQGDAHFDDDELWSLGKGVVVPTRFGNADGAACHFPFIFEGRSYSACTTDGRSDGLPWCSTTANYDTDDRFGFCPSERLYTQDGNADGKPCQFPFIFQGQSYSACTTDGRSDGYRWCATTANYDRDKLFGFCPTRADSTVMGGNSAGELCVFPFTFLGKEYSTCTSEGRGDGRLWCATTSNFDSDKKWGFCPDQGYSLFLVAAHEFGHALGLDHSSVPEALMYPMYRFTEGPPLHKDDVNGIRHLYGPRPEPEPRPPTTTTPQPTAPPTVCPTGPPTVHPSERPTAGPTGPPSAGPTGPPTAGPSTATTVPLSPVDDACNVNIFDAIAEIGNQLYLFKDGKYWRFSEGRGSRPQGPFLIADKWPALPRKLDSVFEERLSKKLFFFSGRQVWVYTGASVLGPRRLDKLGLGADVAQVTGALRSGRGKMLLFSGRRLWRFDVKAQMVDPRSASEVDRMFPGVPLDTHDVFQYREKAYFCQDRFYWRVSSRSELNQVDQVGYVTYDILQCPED
Chain of ADAM17 (P78536 215-824): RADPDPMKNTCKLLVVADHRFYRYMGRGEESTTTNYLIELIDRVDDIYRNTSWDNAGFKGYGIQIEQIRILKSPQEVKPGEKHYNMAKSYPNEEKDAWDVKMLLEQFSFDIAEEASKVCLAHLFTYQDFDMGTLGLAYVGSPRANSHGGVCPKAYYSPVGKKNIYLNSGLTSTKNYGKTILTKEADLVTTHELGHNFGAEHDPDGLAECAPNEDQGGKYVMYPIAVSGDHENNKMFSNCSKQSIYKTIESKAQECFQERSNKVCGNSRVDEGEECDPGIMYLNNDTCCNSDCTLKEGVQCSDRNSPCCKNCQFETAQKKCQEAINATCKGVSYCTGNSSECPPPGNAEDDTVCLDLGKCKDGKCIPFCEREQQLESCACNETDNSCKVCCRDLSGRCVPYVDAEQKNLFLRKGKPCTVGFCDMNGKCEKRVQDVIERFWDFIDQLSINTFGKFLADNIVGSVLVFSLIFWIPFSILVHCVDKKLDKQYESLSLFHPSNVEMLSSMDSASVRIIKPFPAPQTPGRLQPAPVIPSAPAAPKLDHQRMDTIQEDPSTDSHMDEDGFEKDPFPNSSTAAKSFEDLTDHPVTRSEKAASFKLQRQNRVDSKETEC

Row | remaining activity at 10 µM [1] [%] | remaining activity at 10 µM [3] [%] | remaining activity at 10 µM [4] [%] | remaining activity at 10 µM [5] [%] | remaining activity at 10 µM [7] [%] | SF: selectivity factor (Ki(app) meprin β/Ki(app) meprin α) [8] | activity against meprin β dropped by factor ([9]; compared to 21i) | Ki [8] [nM] | Ki [9] [nM] | fold improved activity against meprin α ([8]; compared to 21e) [fold] | fold increase in potency against meprin β ([9]; compared to 21e) [fold] | Structure (SMILES) | viability at 24 h, 30 µM [2] [%] | viability at 24 h, 30 µM [6] [%] | residual activities of the respective MMPs and ADAMs [10]
1 | 90 | 117 | 98 | 100 | 102 | 7892 | ~120 |  |  |  |  | O=C(CCc1c(-c2ccccc2)nn(Cc2ccc(Cl)c(O)c2F)c1-c1ccccc1)NO [compound 22, 3-[1-[(4-Chloro-2-fluoro-3-hydroxy-phenyl)methyl]-3,5-diphenyl-pyrazol-4-yl]propane-hydroxamic acid] | 100 | 98 | 
2 | 99 | 90 | 105 | 94 | 95 | 2 |  | 0.1 | 0.2 |  |  | O=C(Cc1c(-c2cccc(C(=O)O)c2)n[nH]c1-c1cc(F)c(O)c(Cl)c1)NO [16j, 3-[5-(3-Chloro-5-fluoro-4-hydroxy-phenyl)-4-[2-(hydroxyamino)-2-oxo-ethyl]-1H-pyrazol-3-yl]benzoic acid] | 98 | 110 | above 90%
3 | 84 | 92 | 83 | 83 | 89 | 35 |  | 0.3 | 10.6 | 3 | 30 | O=C(Cc1c(-c2ccccc2)nn(Cc2cccc(C(=O)O)c2)c1-c1ccccc1)NO [21g, 3-[[4-[2-(Hydroxyamino)-2-oxo-ethyl]-3,5-diphenyl-pyrazol-1-yl]methyl]benzoic acid] | 99 | 85 | 
